Patent US4661491A, “Alfuzosine compositions and use” (Synthelabo, priority 1985, dated 1987)

Columns and labels:
[1] = biological target: T1, α-adrenergic receptors (Oryctolagus cuniculus, UniProt O02824); assay: Phenylephrine-induced contraction of rabbit trigone muscle and urethra preparations; format: biochemical
T1 construct: The bladder and urethra are rapidly removed and placed in lukewarm Krebs solution; from tissue; host or cells: rabbit bladder trigone muscle and urethra ring, isolated organ
T1 sequence (O02824 1-466): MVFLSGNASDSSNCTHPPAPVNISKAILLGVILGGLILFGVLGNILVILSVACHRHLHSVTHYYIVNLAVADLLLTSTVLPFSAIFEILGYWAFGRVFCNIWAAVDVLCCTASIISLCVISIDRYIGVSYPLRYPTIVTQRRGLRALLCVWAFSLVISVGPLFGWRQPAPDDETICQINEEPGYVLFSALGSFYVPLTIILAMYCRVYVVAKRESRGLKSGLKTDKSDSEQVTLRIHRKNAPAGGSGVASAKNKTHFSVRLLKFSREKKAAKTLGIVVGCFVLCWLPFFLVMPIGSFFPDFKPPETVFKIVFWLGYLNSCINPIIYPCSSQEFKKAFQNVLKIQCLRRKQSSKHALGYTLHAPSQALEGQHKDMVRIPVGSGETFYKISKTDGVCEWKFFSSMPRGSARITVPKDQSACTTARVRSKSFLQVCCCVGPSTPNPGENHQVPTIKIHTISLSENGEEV
Protocol: Male rabbits (CEGAN) weighing 3 to 4 kg are sacrificed by exsanguination and cervical dislocation.
The bladder and urethra are rapidly removed and placed in lukewarm Krebs solution containing bicarbonate.
The composition of this Krebs medium is as follows, in mM: NaCl 114; KCl 4.7; CaCl2 2.5; KH2 PO4 1.2; MgSO4 1.2; NaHCO3 25.0; glucose 11.7; ascorbic acid 1.1. Propranolol (1.0 μM) is added into the Krebs medium to block the β-adrenergic receptors.
The bladder is opened transversely and the "trigone" region of the muscle, located on the dorsal surface of the bladder and between the two ureters, is dissected out.
A 5 mm ring of urethra, from the region situated between the base of the bladder and the prostate, is also prepared.
The portions of trigone muscle and urethra are washed under a tension of 1 g in Krebs medium.
The contraction-response curve to cumulated concentrations of phenylephrine is determined.
Additions of the agonist are performed every 5 min. The tissues are washed until the original tension is reestablished, and are then incubated for 30 min with alfuzosine. A second response curve to phenylephrine is determined in the presence of alfuzosine.
The response curves to concentrations of phenylephrine in the presence or absence of alfuzosine are expressed as a percentage of the maximum response obtained relative to the control curve.
The power of alfuzosine is calculated in the form of pA2 by Schild's method, where pA2 =negative logarithm of the molar concentration of alfuzosine which causes a rightward shift of the response curve to the agonist.

[2] = Clinical study in paraplegics, micturition test; format: in vivo, human
Protocol: A clinical study was also performed in paraplegics.
The paraplegic, or spinal man, gives rise to an experimental model of the peripheral receptors, since he embodies a disconnection from the influence of the higher, diencephalic and cortical nerve centres.
Given the localization of the alpha-adrenergic receptors in the posterior urethra and the vesico-urethral segment or neck, alpha-adrenergic hypertonia is the source of dysuria and disturbances of micturition. The opening of the neck and the fall in the pressure gradient in the posterior urethra are the two conditions required for the production of effective micturition.
Alfuzosine was administered intravenously, and then orally if the first test is positive. 5 mg of alfuzosine are injected intravenously in the course of 20 min.
The test is considered to be positive if an initiation of micturition, that is to say, necessarily, opening of the neck, takes place.
For patients for whom the test is positive, the administration of alfuzosine was then performed orally at the rate of 9 mg/24 h/28 d.

[3] = Clinical study, sphincterometric measurements in patients with dysuria of neurological origin with urethral hypertonia; format: in vivo, human; settings: 5 mg i.v. over 20 min; p<0.001
Protocol: By means of clinical studies, it has also been possible to show the efficacy of alfuzosine in patients suffering from dysuria of neurological origin with urethral hypertonia.
5 mg of alfuzosine are injected intravenously continuously for a period of 20 min. Sphincterometric measurements were made using an electronic micro-sensor, before and after the injection of the drug, at the bladder neck and at the striated sphincter of the posterior urethra.

With `COc1cc2nc(N(C)CCCNC(=O)C3CCCO3)nc(N)c2cc1OC` (stereo not shown) [Alfuzosine] the “shift of the response curve to phenylephrine” value ([1]; alfuzosine 3.0 μM, 30 min incubation, trigone muscle and urethra) was “significant rightward parallel shift”, the Kb ([1]; antagonism of phenylephrine contraction, read-out: pA2 (Schild analysis) (converted)) was 89.1 nM and the “reduction in the maximum contractile effects of phenylephrine” value ([1]; trigone muscle and urethra, 30 min) was 20 to 30%. For the same compound, the “initiation of micturition under oral treatment” value ([2]; paraplegics positive in i.v. test, per os 9 mg/24 h/28 d) was “enabled micturition to be rendered easier to initiate”, the “intra-urethral pressures after injection” value ([2]; paraplegics, 5 mg i.v. in 20 min) was “decrease significantly” and the “pressure decrease at the bladder neck” value [3] was 44%. The “pressure decrease at the striated sphincter” value [3] was 39%.
